According to patent US6943181B2, “Use of substituted gamma-lactone compounds as pharmaceutical preparations” (Grunenthal GmbH, priority 2001, dated 2005):

Target: T1, nitrogen monoxide synthase (NO synthase) (Rattus norvegicus, UniProt P29476)
T1 construct: the supernatant was then decanted off and frozen in portions; from tissue; host or cells: rat cerebellum (homogenate, 20,000 g supernatant)
Assay: HTS-NOS assay (nitrogen monoxide synthase assay)
Assay type: biochemical
Settings: compound at 10 μM; enzyme preparation from rat cerebella; [3H]-arginine substrate
Source text: This assay makes it possible to determine the percentage inhibition of NO synthase by a compound of the general formula I used according to the invention by measuring NOS activity on exposure to the compound. NO synthase is here mixed under suitable conditions together with radioactively labelled arginine and the particular compound of the general formula I. After termination of the NO formation reaction at a predetermined time, the quantity of unconverted arginine is directly or indirectly determined. […] This assay may be carried out at follows: • (a) Incubation of the NO synthase with labelled arginine as the substrate in a reaction vessel, • (b) Separation of the labelled arginine from the labelled citrulline optionally arising as a product of the enzymatic reaction at a time at which the concentration of citrulline is rising, • (c) Measurement of the quantity of arginine separated in each case.
Separation is performed by means of a filter plate membrane.
Radioactive arginine is used as the substrate in this HTS-NOS assay. Depending on the type of microtitre plate (MTP), the assay volume may be selected in the range between 25 μl and 250 μl. Depending on the enzyme source used, cofactors and coenzymes are added. The batches are incubated in this microtitre plate (assay MTP) according to step (a) at room temperature and, depending on the enzyme activity used (units), lasts between 5 and 60 minutes. On completion of incubation (step (a)), the plate is placed in a cell harvester, which is equipped with an MTP which has a cation exchange membrane as a filter bottom (filter MTP). All the batches from the assay MTP are transferred into this filter MTP and suction filtered through a cation exchange filter plate, a paper filter loaded with phosphate groups. The filter MTP is then washed with buffer or water. This procedure binds the remaining substrate arginine onto the cation exchanger, while the enzymatically formed radioactive citrulline is quantitatively eluted. Once the filter MTP has been dried and scintillation liquid added, the bound arginine can be counted in the scintillation counter. Low radioactivity indicates an uninhibited NOS reaction. An inhibited enzyme reaction means that the radioactive arginine has not been converted. This means that there is a high level of radioactivity on the filter.
• Arginine, L-[2,3,4-^3H]-monohydrochloride; item no. […] The pH value of the buffer was adjusted to 7.4 at 25° C. • Washing medium: H2O Enzyme Preparation
Rat cerebella were used as the starting tissue. The animals were stunned and killed, the brain tissue, the cerebellum, was dissected out, 1 ml of enzyme preparation buffer (4° C.) was added per cerebellum, and the tissue was disrupted for 1 min at 6000 rpm in a Polytron homogeniser. The mixture was then centrifuged at 4° C. for 15 min at 20,000 g, and the supernatant was then decanted off and frozen in portions at −80° C. (discarding the precipitate).
96-Well MTPs with a well capacity of ≦250 μl were used Pipetting sequence: see table 1:
Once the pipetting operation was complete, a lid was laid on top of this MTP (assay MTP). Incubation at 25° C. (room temperature (RT)) for 5-60 min, depending on the quantity and activity of the enzyme used.
The contents of the assay MTP were then transferred with the assistance of a 96 well cell harvester into a 96 well cation exchange MTP (filter MTP) and suction filtered. A single washing with […] of H2O (from a trough) was then performed.
The plate was then dried for 1 h at 60° C. in a drying cabinet. The bottom of the filter MTP was then carefully sealed from beneath with a “back seal”. 35 μl of scintillating material were then pipetted into each well. The top of the plate was also sealed with a “top seal”. After 1 hour's waiting time, the plate was assessed on the β-counter.

SMILES	inhibition at 10 µM [%]
COc1cc(OC)cc(C2(C)CC(Nc3n[nH]cc3Br)C(=O)O2)c1 (centres unmarked) [Example 62, 3-(4-Bromo-1H-pyrazol-3-ylamino)-5-(3,5-dimethoxy-phenyl)-5-methyl-dihydro-furan-2-one]	40
COc1ccccc1C1(C)CC(Nc2n[nH]cc2Br)C(=O)O1 (centres unmarked) [Example 63, 3-(4-Bromo-1H-pyrazol-3-ylamino)-5-(2-methoxy-phenyl)-5-methyl-dihydro-furan-2-one]	51
COc1ccc(OC)c(C2(C)CC(Nc3n[nH]cc3C#N)C(=O)O2)c1 (centres unmarked) [Example 64, 3-[5-(2,5-Dimethoxy-phenyl)-5-methyl-2-oxo-tetrahydro-furan-3-ylamino]-1H-pyrazole-4-carbonitrile]	42
COc1ccc(OC)c(C2(C)CC(Nc3n[nH]c(SC)c3C#N)C(=O)O2)c1 (centres unmarked) [Example 65, 3-[5-(2,5-Dimethoxy-phenyl)-5-methyl-2-oxo-tetrahydro-furan-3-ylamino]-5-methylsulfanyl-1H-pyrazole-4-carbonitrile]	42
COc1ccc(OC)c(C2(C)CC(Nc3ccccn3)C(=O)O2)c1 (centres unmarked) [Example 66, 5-(2,5-Dimethoxy-phenyl)-5-methyl-3-(pyridin-2-ylamino)-dihydro-furan-2-one]	52
COc1ccccc1C1(C)CC(Nc2ccccn2)C(=O)O1 (centres unmarked) [Example 67, 5-(2-Methoxy-phenyl)-5-methyl-3-(pyridin-2-ylamino)-dihydro-furan-2-one]	45
COc1cc(OC)cc(C2(C)CC(Nc3ncc(C(F)(F)F)cc3Cl)C(=O)O2)c1 (centres unmarked) [Example 68, 3-(3-Chloro-5-trifluoromethyl-pyridin-2-ylamino)-5-(3,5-dimethoxy-phenyl)-5-methyl-dihydro-furan-2-one]	60
COc1ccc(OC)c(C2(C)CC(Nc3ncc(C(F)(F)F)cc3Cl)C(=O)O2)c1 (centres unmarked) [Example 69, 3-(3-Chloro-5-trifluoromethyl-pyridin-2-ylamino)-5-(2,5-dimethoxy-phenyl)-5-methyl-dihydro-furan-2-one]	58
COc1ccccc1C1(C)CC(Nc2ncc(Cl)cc2Cl)C(=O)O1 (centres unmarked) [Example 70, 3-(3,5-Dichloro-pyridin-2-ylamino)-5-(2-methoxy-phenyl)-5-methyl-dihydro-furan-2-one]	51
COc1ccc(C2(C)CC(Nc3ncc(C(F)(F)F)cc3Cl)C(=O)O2)c(OC)c1 (centres unmarked) [Example 71, 3-(3-Chloro-5-trifluoromethyl-pyridin-2-ylamino)-5-(2,4-dimethoxy-phenyl)-5-methyl-dihydro-furan-2-one]	54
COc1cccc(C2(C)CC(Nc3cc(C)cc(C)n3)C(=O)O2)c1 (centres unmarked) [Example 72, 3-(4,6-Dimethyl-pyridin-2-ylamino)-5-(3-methoxy-phenyl)-5-methyl-dihydro-furan-2-one]	40
COc1ccc(C2(C)CC(Nc3cc(C)cc(C)n3)C(=O)O2)cc1 (centres unmarked) [Example 73, 3-(4,6-Dimethyl-pyridin-2-ylamino)-5-(4-methoxy-phenyl)-5-methyl-dihydro-furan-2-one]	56
COc1ccc(C2(C)CC(Nc3cc(C)cc(C)n3)C(=O)O2)cc1OC (centres unmarked) [Example 74, 5-(3,4-Dimethoxy-phenyl)-3-(4,6-dimethyl-pyridin-2-ylamino)-5-methyl-dihydro-furan-2-one]	51
COc1ccc(C2(C)CC(Nc3cc(C)ccn3)C(=O)O2)cc1 (centres unmarked) [Example 75, 5-(4-Methoxy-phenyl)-5-methyl-3-(4-methyl-pyridin-2-ylamino)-dihydro-furan-2-one]	48
